Test results from the supplement of paper PMC5579334.

What was measured:
HS-PSS [1] = assay: drug sensitivity score (DSS, CellTox-Green cytotoxicity, 72 h) (DSS (dimensionless)); higher = more cytotoxic; extreme values may be limits of the assay
Procedure, shortened: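 MPNST cell lines and primary human Schwann cells were incubated 72 h at 37 °C in 384-well plates holding five 10-fold compound dilutions. CellTox-Green was added before seeding at a final 1:1000 dilution and reported fluorescence from DNA released by disrupted cells. Signals were scaled to vehicle and positive-control wells, and cultures failing plate quality control were dropped. Drug sensitivity score and relative IC50 come from four-parameter logistic fits, with IC50 censored at the top concentration.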

YST-1 [2] = assay: drug sensitivity score (DSS, CellTiter-Glo viability, 72 h) (DSS (dimensionless)); higher = more sensitive; extreme values may be limits of the assay
Procedure, shortened: (§1)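 Viability was scored by CellTiter-Glo ATP luminescence, scaled from vehicle to positive-control wells, with duplicates averaged where present. The cells, MPNST lines and primary human Schwann cells at 750–1000 per well, sat 72 h at 37 °C, 5% CO2, in 384-well plates preprinted with each compound at five concentrations in 10-fold steps. Four-parameter logistic fits were run on the data. These fits give drug sensitivity score and relative IC50 censored at the top concentration, and percent inhibition is reported at the top concentration.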

HS-PSS [3] = assay: as above
Procedure, shortened: as §1

HS-Sch-2 [4] = assay: as above
Procedure, shortened: as §1

YST-1 [5] = assay: % inhibition of CellTiter-Glo viability at highest tested concentration (72 h), relative to DMSO and benzethonium chloride controls; higher = more inhibition
Procedure, shortened: as §1

HS-PSS [6] = assay: as above
Procedure, shortened: as §1

HS-Sch-2 [7] = assay: as above
Procedure, shortened: as §1

SMILES	drug sensitivity score (HS-PSS [1])	drug sensitivity score (YST-1 [2])	drug sensitivity score (HS-PSS [3])	drug sensitivity score (HS-Sch-2 [4])	% inhibition (YST-1 [5])	% inhibition (HS-PSS [6])	% inhibition (HS-Sch-2 [7])
C[C@H](Nc1ncnc2nc[nH]c12)c1cc2cccc(Cl)c2c(=O)n1-c1ccccc1 [Duvelisib] (max concentration tested 500 nM)	0.21	0.82	0	0.22	19.5%	-0.01%	13.6%
Cc1cnc(Nc2ccc(OCCN3CCCC3)cc2)nc1Nc1cccc(S(=O)(=O)NC(C)(C)C)c1 [Fedratinib] (max concentration tested 10000 nM)	3.87	8.29	9.41	10.8	87.1%	96.5%	102%
O=C(O)c1ccc(CN2CCC(CN[C@@H]3C[C@H]3c3ccccc3)CC2)cc1 (max concentration tested 10000 nM)	0	0	0	0	-3.86%	2.06%	-4.91%
Cn1nnc2c(C(N)=O)ncn2c1=O [Temozolomide] (max concentration tested 100000 nM)	0	0.08	0	1.67	11.6%	8.55%	20.4%
O=C(Nc1cccc(C(F)(F)F)c1)Nc1cc(S(=O)(=O)NC2CC2)ccc1-c1ccsc1 [AGI-6780] (max concentration tested 10000 nM)	0	0.34	0.86	2.42	12.9%	24.7%	28.6%
O=C1c2ccccc2-c2n[nH]c3cccc1c23 (max concentration tested 100000 nM)	0.2	2.42	4.26	2.29	34.2%	43.2%	27.4%
CN(C)c1cc2c(cc1Sc1nc3c(N)nccc3n1CCNCC(C)(C)C)OCO2 [CUDC-305] (max concentration tested 10000 nM)	4.43	12.6	13.1	19.6	81.7%	84.7%	101%
Cc1cc(OCc2nnc(SC3CCCC3)n2-c2cccnc2)ccc1-c1ccc(S(C)(=O)=O)cc1 [NMS-873] (max concentration tested 10000 nM)	5.58	9.52	22.9	19.2	99.9%	99.9%	101%
Cc1cnc(-c2ccccc2C(C)C)nc1NCc1ccc(-n2ccnn2)cc1 [ML323] (max concentration tested 10000 nM)	0	0.66	3.56	3.67	18.2%	42%	39.9%
Cn1cc(-c2ccc3nnc(C(F)(F)c4ccc5ncccc5c4)n3n2)cn1 (max concentration tested 10000 nM)	0	0.54	1.21	0.05	18.4%	17.4%	11.5%
N#Cc1c(Oc2ccc(F)c(NC(=O)Cc3cccc(C(F)(F)F)c3)c2)ccc2nc(NC(=O)C3CC3)sc12 [TAK-632] (max concentration tested 10000 nM)	0	0	1.38	1.14	10.2%	37.5%	32.1%
Cc1cc(C)c(/C=C2\C(=O)Nc3ccccc32)[nH]1 [Semaxanib] (max concentration tested 10000 nM)	4.89	2.84	0	0	14.4%	0.19%	-7.06%
CNc1ncc2cc(-c3cc(NC(=O)NCCC(C)(C)C)c(F)cc3C)c(C)nc2n1 (max concentration tested 10000 nM)	0.82	6.37	3.13	10.8	46.5%	69.1%	55.9%
Cc1cc(Nc2cc(N3CCN(C)CC3)nc(/C=C/c3ccccc3)n2)n[nH]1 [ENMD-2076] (max concentration tested 10000 nM)	1.84	10.8	8.13	12.1	63.9%	70.5%	95.5%
Cn1cc(-c2cnn3c(N)c(Br)c([C@@H]4CCCNC4)nc23)cn1 [MK-8776] (max concentration tested 2500 nM)	0	2.03	0	7.06	29.6%	7.73%	72%
C[C@H]1Oc2cc(cnc2N)-c2c(nn(C)c2C#N)CN(C)C(=O)c2ccc(F)cc21 (max concentration tested 1000 nM)	0	0	12.3	0.53	3.35%	53.9%	14.9%
N[C@@H]1CCCN(c2c(/C=C3\SC(=O)NC3=O)cccc2-c2ccccc2)C1 [AZD1208] (max concentration tested 10000 nM)	0	7.54	0	0	38.7%	-5.48%	-3.67%
O=C(O)c1ccc2c(c1)nc(Nc1cccc(Cl)c1)c1ccncc12 [Silmitasertib] (max concentration tested 10000 nM)	0	6.93	4.36	2.47	97.4%	66.2%	52.4%

SMILES	drug sensitivity score (HS-PSS [1])	drug sensitivity score (YST-1 [2])	drug sensitivity score (HS-PSS [3])	drug sensitivity score (HS-Sch-2 [4])	% inhibition (YST-1 [5])	% inhibition (HS-PSS [6])	% inhibition (HS-Sch-2 [7])
CC(C)(C)C[C@@H]1N[C@@H](C(=O)N[C@H]2CC[C@H](O)CC2)[C@H](c2cccc(Cl)c2F)[C@]12C(=O)Nc1cc(Cl)ccc12 (max concentration tested 10000 nM)	0	21.9	1.67	0.86	100%	36.2%	19.6%
COc1cc(OC)c(/C=C/S(=O)(=O)Cc2ccc(OC)c(NCC(=O)O)c2)c(OC)c1 [Rigosertib] (max concentration tested 10000 nM)	0	21.8	14.8	21.8	79.3%	61.8%	87.6%
Nc1nc(N)c2nc(-c3cccc(O)c3)c(-c3cccc(O)c3)nc2n1 [TG100-115] (max concentration tested 10000 nM)	0	1.38	0	0	20.9%	9.07%	10.8%
Cn1cc(C2=Nc3cc(NC(=O)C(N)C4CCCCC4)cc4c3C2=CNNC4=O)cn1 (configuration not stated) (max concentration tested 10000 nM)	0	14.8	8.91	22.7	51.3%	43.5%	84.3%
COC[C@H](NC(=O)c1cnc(C)s1)C(=O)N[C@@H](COC)C(=O)N[C@@H](Cc1ccccc1)C(=O)[C@@]1(C)CO1 [Oprozomib] (max concentration tested 2500 nM)	7.1	18.4	14.3	26.3	101%	98.3%	102%
CNC(=O)c1ccccc1Nc1nc(Nc2ccc3c(c2OC)CCC[C@H](N2CCN(CCO)CC2)C3)ncc1Cl (max concentration tested 5000 nM)	2.99	8.71	15	7.99	82.8%	86.5%	98.5%
Cc1cc(-c2ncc(CC(=O)Nc3ccc(-c4cnccn4)cn3)cc2C)ccn1 [NVP-LGK974] (max concentration tested 10000 nM)	0	0	3.51	3	1.59%	45.4%	52.2%
O=C(Nc1nc2cccc(-c3ccc(CN4CCS(=O)(=O)CC4)cc3)n2n1)C1CC1 [Filgotinib] (max concentration tested 10000 nM)	0	1.97	0.09	2.01	45.2%	14.3%	35.7%
Nc1nc2[nH]cc(CCc3ccc(C(=O)N[C@@H](CCC(=O)O)C(=O)O)cc3)c2c(=O)[nH]1 [Pemetrexed] (max concentration tested 10000 nM)	0	4.42	0	17.1	19.7%	6.45%	62.5%
CCN(CC)Cc1ccc2cc(COC(=O)Nc3ccc(C(=O)NO)cc3)ccc2c1 [Givinostat] (max concentration tested 1000 nM)	1.98	13.1	3.45	8.81	98.9%	69.4%	98%
O=C(NOCCO)c1ccc2cncn2c1Nc1ccc(I)cc1F [GDC-0623] (max concentration tested 2500 nM)	0.89	0	3.76	5.27	6.24%	37.1%	55%
N#CC(c1ccnc(OCc2ccc(CN3CCOCC3)cc2)n1)c1nc2ccccc2s1 (configuration not stated) [Bentamapimod] (max concentration tested 10000 nM)	1.1	2.11	6.75	3.69	26.9%	75.6%	58.6%
Cc1cc(-c2nc(-c3ccc(OC(F)(F)F)cc3)no2)nn1Cc1ccnc(N2CCN(C3CC3)CC2)c1 [BAY 87-2243] (max concentration tested 1000 nM)	0	2.18	31.7	26.4	15.5%	74.5%	65.9%
CCOc1cc2ncc(C#N)c(Nc3ccc(F)c(Cl)c3)c2cc1NC(=O)/C=C/CN(C)C [Pelitinib] (max concentration tested 2500 nM)	1.05	4.87	12.8	11	47.9%	73.9%	89.6%
O=C(/C=C\n1cnc(-c2cc(C(F)(F)F)cc(C(F)(F)F)c2)n1)NNc1ccccn1 [Verdinexor] (max concentration tested 1000 nM)	0.01	8.71	5.78	9.76	88.9%	60%	97%
CCCNC(=O)Nc1ccc(Oc2ncnc3cc(OC)c(OC)cc23)cc1Cl [KRN-633] (max concentration tested 2500 nM)	0	0	0	0	7.23%	10.5%	-7.09%
Cc1ccc(C(=O)Nc2ccc(Oc3cc4cnn(C)c4cc3-c3cn[nH]c3)c(F)c2)c(=O)n1-c1ccc(F)cc1 [Merestinib] (max concentration tested 1000 nM)	0	1.74	3.07	1.13	25.2%	46.7%	31%
CC(C)NC(=O)COc1cccc(-c2nc(Nc3ccc4[nH]ncc4c3)c3ccccc3n2)c1 [SLx-2119] (max concentration tested 5000 nM)	0	13.6	3.67	2.63	83.7%	48.7%	29.4%
